Data from patent US10442803B2, “Tricyclic heterocycles as bet protein inhibitors” (Incyte Corporation, priority 2013, dated 2019).
Structures can show the parent of a compound that is named as a salt. Where two headings read alike, the source gives them in different places.

Test system: KMS.12.BM cells
Test: KMS.12.BM cell viability assay
Assay type: cell-based
Conditions: KMS.12.BM human myeloma cells, 3 days, Cell Titer-GLO ATP quantitation, read-out: KMS cellular IC50
Method in brief: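 IC50 derived from luminescent ATP quantitation (Cell Titer-GLO) of viable cells after 3-day compound treatment. KMS.12.BM human myeloma line seeded at 5000 cells/well in RPMI with 10% FBS.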

Compound	IC50 (72 h) [nM]	IC50 [nM]
Cc1cc2c(ccc3nnc(C)n32)n1Cc1ccc(CN2CCC2)cc1 [Example 50, 6-[4-(azetidin-1-ylmethyl)benzyl]-1,7-dimethyl-6H-pyrrolo[2,3-e][1,2,4]triazolo[4,3-a]pyridine]	1000 to 10000	–
Cc1nnc2ccc3c(cc(-c4ccn(C5CN(C)C5)n4)n3Cc3cccc(Cl)c3)n12 [Example 180, 6-(3-Chlorobenzyl)-1-methyl-7-[1-(1-methylazetidin-3-yl)-1H-pyrazol-3-yl]-6H-pyrrolo[2,3-e][1,2,4]triazolo[4,3-a]pyridine bis(trifluoroacetate) salt]	≤ 1000	–
Cc1nnc2ccc3c(cc(-c4cc[nH]n4)n3Cc3cccc(CN4CCC4)c3)n12 [Example 182, 6-[3-(Azetidin-1-ylmethyl)benzyl]-1-methyl-7-(1H-pyrazol-3-yl)-6H-pyrrolo[2,3-e][1,2,4]triazolo[4,3-a]pyridine tris(trifluoroaceate) salt]	–	≤ 1000
Cc1nnc2ccc3c(cc(C(=O)NCc4ccncc4)n3Cc3cccc(Cl)c3)n12 [Example 130, 6-(3-Chlorobenzyl)-1-methyl-N-(pyridin-4-ylmethyl)-6H-pyrrolo[2,3-e][1,2,4]triazolo[4,3-a]pyridine-7-carboxamide bis(trifluoroacetate) salt]	≤ 1000	–
Cc1cc2c(ccc3nnc(C)n32)n1Cc1cccc(CN2CCCC2)c1 [Example 45, 1,7-dimethyl-6-[3-(pyrrolidin-1-ylmethyl)benzyl]-6H-pyrrolo[2,3-e][1,2,4]triazolo[4,3-a]pyridine]	≤ 1000	–
Cc1nnc2ccc3c(cc(-c4ccn(C)n4)n3Cc3cc(Cl)cc(CN4CCC4)c3)n12 [Example 185, 6-[3-(Azetidin-1-ylmethyl)-5-chlorobenzyl]-1-methyl-7-(1-methyl-1H-pyrazol-3-yl)-6H-pyrrolo[2,3-e][1,2,4]triazolo[4,3-a]pyridine tris(trifluoroacetate) salt]	≤ 1000	–
Cc1cc2c(ccc3nnc(C)n32)n1Cc1cccc(CN2CC(O)C2)c1 [Example 27, 1-(3-((1,7-dimethyl-6H-pyrrolo[2,3-e][1,2,4]triazolo[4,3-a]pyridin-6-yl)methyl)benzyl)azetidin-3-ol bis-trifluoroacetate salt]	≤ 1000	–
Cc1cc2c(cc(NC3CCN(C)CC3)c3nnc(C)n32)n1Cc1ccccc1 [Example 207, 6-Benzyl-1,7-dimethyl-N-(1-methylpiperidin-4-yl)-6H-pyrrolo[2,3-e][1,2,4]triazolo[4,3-a]pyridin-4-amine]	≤ 1000	–
CC(=O)Nc1cccc(Cn2c(C)cc3c2ccc2nnc(C)n23)c1 [Example 25, N-{3-[(1,7-dimethyl-6H-pyrrolo[2,3-e][1,2,4]triazolo[4,3-a]pyridin-6-yl)methyl]phenyl}acetamide trifluoroacetate salt]	≤ 1000	–
Cc1cc2c(cc(NC(N)=O)c3nnc(C)n32)n1Cc1cccc(F)c1F [Example 237, 1-(6-(2,3-Difluorobenzyl)-1,7-dimethyl-6H-pyrrolo[2,3-e][1,2,4]triazolo[4,3-a]pyridin-4-yl)urea]	≤ 1000	–
CCNC(=O)c1cc2c(ccc3nnc(C)n32)n1Cc1cccc(Cl)c1 [Example 113, 6-(3-Chlorobenzyl)-N-ethyl-1-methyl-6H-pyrrolo[2,3-e][1,2,4]triazolo[4,3-a]pyridine-7-carboxamide trifluoroacetate salt]	≤ 1000	–
COCCNc1cc2c(cc(C)n2Cc2ccccc2)n2c(C)nnc12 [Example 209, 6-Benzyl-N-(2-methoxyethyl)-1,7-dimethyl-6H-pyrrolo[2,3-e][1,2,4]triazolo[4,3-a]pyridin-4-amine]	1000 to 10000	–
Cc1nnc2ccc3c(cc(-c4ccn(CC#N)n4)n3Cc3ccccc3)n12 [Example 65, [3-(6-benzyl-1-methyl-6H-pyrrolo[2,3-e][1,2,4]triazolo[4,3-a]pyridin-7-yl)-1H-pyrazol-1-yl]acetonitrile]	≤ 1000	–
Cc1nnc2ccc3c(cc(-c4ncco4)n3Cc3cccc(Cl)c3)n12 [Example 194, 6-(3-Chlorobenzyl)-1-methyl-7-(1,3-oxazol-2-yl)-6H-pyrrolo[2,3-e][1,2,4]triazolo[4,3-a]pyridine trifluoroacetate salt]	≤ 1000	–
Cc1cc2c(cc(N[C@H]3CC[C@@H](C#N)CC3)c3nnc(C)n32)n1Cc1ccccc1 (single isomer, unassigned) [Example 215 b, 4-[(6-benzyl-1,7-dimethyl-6H-pyrrolo[2,3-e][1,2,4]triazolo[4,3-a]pyridin-4-yl)amino]cyclohexanecarbonitrile trifluoroacetate salt]	1000 to 10000	–
CN[C@H]1CC[C@H](Nc2cc3c(cc(C)n3Cc3ccccc3)n3c(C)nnc23)CC1 [Example 219, trans-N-(6-Benzyl-1,7-dimethyl-6H-pyrrolo[2,3-e][1,2,4]triazolo[4,3-a]pyridin-4-yl)-N′-methylcyclohexane-1,4-diamine]	≤ 1000	–

Compound	IC50 (72 h) [nM]	IC50 [nM]
Cc1cc2c(cc(N[C@H]3CCN(C(=O)OC(C)(C)C)C3)c3nnc(C)n32)n1Cc1ccccc1 [Example 150, tert-butyl (3S)-3-[(6-benzyl-1,7-dimethyl-6H-pyrrolo[2,3-e][1,2,4]triazolo[4,3-a]pyridin-4-yl)amino]pyrrolidine-1-carboxylate]	1000 to 10000	–
Cc1cc2c(cc(Nc3cc[nH]n3)c3nnc(C)n32)n1Cc1ccccc1 [Example 200, 6-Benzyl-1,7-dimethyl-N-1H-pyrazol-3-yl-6H-pyrrolo[2,3-e][1,2,4]triazolo[4,3-a]pyridin-4-amine tris(trifluoroacetate) salt]	≤ 1000	–
Cc1cc2c(cc(Nc3nc4ccccc4[nH]3)c3nnc(C)n32)n1Cc1ccccc1 [Example 205, N-1H-Benzimidazol-2-yl-6-benzyl-1,7-dimethyl-6H-pyrrolo[2,3-e][1,2,4]triazolo[4,3-a]pyridin-4-amine trifluoroacetate salt]	≤ 1000	–
Cc1nnc2ccc3c(ccn3S(=O)(=O)c3ccccc3)n12 [Example 3, 1-methyl-6-(phenylsulfonyl)-6H-pyrrolo[2,3-e][1,2,4]triazolo[4,3-a]pyridine]	1000 to 10000	–
Cc1cc2c(cc(NC(N)=O)c3nnc(C)n32)n1Cc1c(F)cccc1F [Example 254, 1-(6-(2,6-Difluorobenzyl)-1,7-dimethyl-6H-pyrrolo[2,3-e][1,2,4]triazolo[4,3-a]pyridin-4-yl)urea]	≤ 1000	–
COc1cccc(Cn2c(C)cc3c2ccc2nnc(C)n23)c1 [Example 22, 6-(3-methoxybenzyl)-1,7-dimethyl-6H-pyrrolo[2,3-e][1,2,4]triazolo[4,3-a]pyridine]	≤ 1000	–
Cc1nnc2ccc3c(cc(-c4ccn(CCC(=O)NC5CN(C)C5)n4)n3Cc3cccc(Cl)c3)n12 [Example 171, 3-{3-[6-(3-Chlorobenzyl)-1-methyl-6H-pyrrolo[2,3-e][1,2,4]triazolo[4,3-a]pyridin-7-yl]-1H-pyrazol-1-yl}-N-(1-methylazetidin-3-yl)propanamide bis(trifluoroacetate) salt]	≤ 1000	–
CCNC(=O)c1cc2c(ccc3nnc(C)n32)n1Cc1cccc(C(F)(F)F)c1 [Example 137, N-Ethyl-1-methyl-6-[3-(trifluoromethyl)benzyl]-6H-pyrrolo[2,3-e][1,2,4]triazolo[4,3-a]pyridine-7-carboxamide trifluoroacetate salt]	≤ 1000	–
Cc1cc2c(cc(NCCCN(C)C)c3nnc(C)n32)n1Cc1ccccc1 [Example 245, N1-(6-Benzyl-1,7-dimethyl-6H-pyrrolo[2,3-e][1,2,4]triazolo[4,3-a]pyridin-4-yl)-N3,N3-dimethylpropane-1,3-diamine]	≤ 1000	–
Cc1cc2c(cc(NC(=O)C(C)C)c3nnc(C)n32)n1Cc1ccccc1 [Example 270, N-(6-Benzyl-1,7-dimethyl-6H-pyrrolo[2,3-e][1,2,4]triazolo[4,3-a]pyridin-4-yl)isobutyramide]	≤ 1000	–
Cc1nnc2ccc3c(cc(C(=O)NCC(C)C)n3Cc3cccc(Cl)c3)n12 [Example 129, 6-(3-Chlorobenzyl)-N-isobutyl-1-methyl-6H-pyrrolo[2,3-e][1,2,4]triazolo[4,3-a]pyridine-7-carboxamide trifluoroacetate salt]	≤ 1000	–
CNC(=O)CCn1ccc(-c2cc3c(ccc4nnc(C)n43)n2Cc2cccc(Cl)c2)n1 [Example 174, 3-{3-[6-(3-Chlorobenzyl)-1-methyl-6H-pyrrolo[2,3-e][1,2,4]triazolo[4,3-a]pyridin-7-yl]-1H-pyrazol-1-yl}-N-methylpropanamide trifluoroacetate salt]	≤ 1000	–
Cc1nnc2ccc3c(cc(-c4ccn(CCC(=O)N5CCOCC5)n4)n3Cc3cccc(Cl)c3)n12 [Example 169, 6-(3-Chlorobenzyl)-1-methyl-7-[1-(3-morpholin-4-yl-3-oxopropyl)-1H-pyrazol-3-yl]-6H-pyrrolo[2,3-e][1,2,4]triazolo[4,3-a]pyridine trifluoroacetate salt]	≤ 1000	–
Cc1nnc2ccc3c(cc(-c4ncco4)n3Cc3cc(Cl)cc(CN4CC(C)(C)C4)c3)n12 [Example 196, 6-{3-Chloro-5-[(3,3-dimethylazetidin-1-yl)methyl]benzyl}-1-methyl-7-(1,3-oxazol-2-yl)-6H-pyrrolo[2,3-e][1,2,4]triazolo[4,3-a]pyridine bis(trifluoroacetate) salt]	≤ 1000	–
CNC(=O)c1cc2c(ccc3nnc(C)n32)n1Cc1cc(Cl)cc(CN2CCC2)c1 [Example 131, 6-[3-(Azetidin-1-ylmethyl)-5-chlorobenzyl]-N,1-dimethyl-6H-pyrrolo[2,3-e][1,2,4]triazolo[4,3-a]pyridine-7-carboxamide bis(trifluoroacetate) salt]	≤ 1000	–
Cc1cc2c(ccc3nnc(C)n32)n1Cc1ccc(CN(C)C)cc1 [Example 53, 1-{4-[(1,7-dimethyl-6H-pyrrolo[2,3-e][1,2,4]triazolo[4,3-a]pyridin-6-yl)methyl]phenyl}-N,N-dimethylmethanamine]	1000 to 10000	–
